Measured values taken from patent US12606541B2, “PPARg modulators and methods of use” (Eisai R&D Management Co., Ltd., priority 2020, dated 2026).
pIC50: −log10 of the molar value. Like-named read-outs stand apart in the source and are kept apart here.

How the values were obtained:
His6-TEV-PPARγ-(234-505) = target: T1, His6-TEV-PPARγ-(234-505) (Homo sapiens, UniProt P37231); test: TR-FRET Assay to Measure Co-R Peptide Recruitment to PPARγ; format: biochemical; conditions: Co-R peptide (SMRT-ID2) recruitment; top final concentration 20 μM; read-out: TR-FRET i-Ag; AC50
T1 construct: The His6-TEV-PPARγ-(234-505) protein for assay was expressed and purified; TEV cleavage site (N); made in house
T1 sequence (P37231 234-505): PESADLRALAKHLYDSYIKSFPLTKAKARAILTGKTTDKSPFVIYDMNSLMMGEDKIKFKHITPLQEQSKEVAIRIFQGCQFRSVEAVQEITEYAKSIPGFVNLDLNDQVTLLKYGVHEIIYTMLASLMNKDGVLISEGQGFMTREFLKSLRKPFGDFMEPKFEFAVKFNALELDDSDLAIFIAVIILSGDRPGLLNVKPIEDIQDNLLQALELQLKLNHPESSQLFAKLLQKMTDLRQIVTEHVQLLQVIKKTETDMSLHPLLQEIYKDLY
How it was run: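 Corepressor recruitment is measured by adding terbium-labeled anti-His antibody and FITC SMRT-ID2 peptide, at 5 and 200 nM final, after a 20-minute room-temperature protein–compound incubation. After one further hour, signal is converted to percent response between DMSO and 500 nM T0070907 wells.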

UM-UC-9 engineered cells = test: Cell proliferation / short-term viability assay, CellTiter-Glo 144 h; format: cell-based, human; conditions: read-out: CTGlo 144 h UMUC9.5, G150
How it was run: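 Viability read by CellTiter-Glo 2.0 luminescence at day 7 versus DMSO-vehicle wells and a T0 plate measured on day 0. Cells: UM-UC-9 engineered assay-ready stocks, 500 cells/well in high-glucose DMEM with 10% FBS, 37° C, 5% CO2.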

SMILES	AC50 (His6-TEV-PPARγ-(234-505)) [nM]	pIC50 (UM-UC-9 engineered cells)	pIC50 (UM-UC-9 engineered cells; Homo sapiens, UM-UC-9, 144 h)
COc1cc(-c2cc(C(=O)N3CC[C@H](C(=O)NC4CCC(O)(C(F)(F)F)C(O)C4)CC34CC4)n[nH]2)c(F)cn1 (single isomer, unassigned) [Example 474-E]	1500	5.72	–
COc1cc(-c2cc(C(=O)N3CC[C@H](C(=O)NC4CCC(O)(C(F)(F)F)C(O)C4)CC34CC4)n[nH]2)c(F)cn1 (single isomer, unassigned) [Example 474-F]	71.6	5.60	–
COc1cc(-c2cc(C(=O)N3CC[C@H](C(=O)NC(C)c4cc5n(n4)CCN(C)C5)CC34CC4)n[nH]2)c(F)cn1 (single isomer, unassigned) [Example 475-A]	433	5.55	–
COc1cc(-c2cc(C(=O)N3CC[C@H](C(=O)NC(C)c4cc5n(n4)CCN(C)C5)CC34CC4)n[nH]2)c(F)cn1 (single isomer, unassigned) [Example 475-B]	102	6.23	–
CCc1cc(-c2cc(C(=O)N3CCC(C(=O)NCc4ncc(F)cc4Cl)CC34CC4)n[nH]2)c(F)cn1 (single isomer, unassigned) [Example 483-A]	216	5.82	–
CCc1cc(-c2cc(C(=O)N3CCC(C(=O)NCc4ncc(F)cc4Cl)CC34CC4)n[nH]2)c(F)cn1 (single isomer, unassigned) [Example 483-B]	0.9	8.14	–
COc1cc(-c2cc(C(=O)N3CC[C@H](C(=O)Nc4cnn5cc(C(C)O)ccc45)CC34CC4)n[nH]2)c(F)cn1 (single isomer, unassigned) [Example 495-A]	23.2	6.54	–
COc1cc(-c2cc(C(=O)N3CC[C@H](C(=O)Nc4cnn5cc(C(C)O)ccc45)CC34CC4)n[nH]2)c(F)cn1 (single isomer, unassigned) [Example 495-B]	13.3	6.84	–
COc1cc(-c2cc(C(=O)N3CC[C@H](C(=O)NC4CCC(C(F)(F)F)C(O)C4)CC34CC4)n[nH]2)c(F)cn1 (single isomer, unassigned) [Example 501-A]	7.8	7.67	–
COc1cc(-c2cc(C(=O)N3CC[C@H](C(=O)NC4CCC(C(F)(F)F)C(O)C4)CC34CC4)n[nH]2)c(F)cn1 (single isomer, unassigned) [Example 501-B]	51.1	6.59	–
COc1cc(-c2cc(C(=O)N3CC[C@H](C(=O)NC4CCCn5cc(C(F)(F)F)nc54)CC34CC4)n[nH]2)c(F)cn1 (single isomer, unassigned) [Example 502-A]	110	6.12	–
COc1cc(-c2cc(C(=O)N3CC[C@H](C(=O)NC4CCCn5cc(C(F)(F)F)nc54)CC34CC4)n[nH]2)c(F)cn1 (single isomer, unassigned) [Example 502-B]	5.3	7.18	–
COc1cc(-c2cc(C(=O)N3CC[C@H](C(=O)NCC4CCNCC4(F)F)CC34CC4)n[nH]2)c(F)cn1 (single isomer, unassigned) [Example 511-A]	17.2	7.20	–
COc1cc(-c2cc(C(=O)N3CC[C@H](C(=O)NCC4CCNCC4(F)F)CC34CC4)n[nH]2)c(F)cn1 (single isomer, unassigned) [Example 511-B]	18.5	7.11	–
COc1cc(-c2cc(C(=O)N3CC[C@H](C(=O)Nc4cnn5c4CC(O)CC5)CC34CC4)n[nH]2)c(F)cn1 (single isomer, unassigned) [Example 514-A]	149	5.38	–
COc1cc(-c2cc(C(=O)N3CC[C@H](C(=O)Nc4cnn5c4CC(O)CC5)CC34CC4)n[nH]2)c(F)cn1 (single isomer, unassigned) [Example 514-B]	59.6	5.37	–
COc1cc(-c2cc(C(=O)N3CC[C@H](C(=O)NC45CC(CO)(C4)OC5C)CC34CC4)n[nH]2)c(F)cn1 (single isomer, unassigned) [Example 518-A]	130	5.50	–
COc1cc(-c2cc(C(=O)N3CC[C@H](C(=O)NC45CC(CO)(C4)OC5C)CC34CC4)n[nH]2)c(F)cn1 (single isomer, unassigned) [Example 518-B]	996	< 5.00	–
N#Cc1cc(-c2cc(C(=O)N3CCC(C(=O)NC4CCC(O)(C(F)(F)F)CC4)CC34CC4)n[nH]2)ncn1 (single isomer, unassigned) [Example 528-A]	2090	< 5.00	–
N#Cc1cc(-c2cc(C(=O)N3CCC(C(=O)NC4CCC(O)(C(F)(F)F)CC4)CC34CC4)n[nH]2)ncn1 (single isomer, unassigned) [Example 528-B]	14	6.39	–
O=C(NC1CCC(O)(C(F)(F)F)CC1)C1CCN(C(=O)c2cc(-c3cc(Cl)ncc3F)[nH]n2)C2(CC2)C1 (single isomer, unassigned) [Example 529-A]	756	5.26	–
O=C(NC1CCC(O)(C(F)(F)F)CC1)C1CCN(C(=O)c2cc(-c3cc(Cl)ncc3F)[nH]n2)C2(CC2)C1 (single isomer, unassigned) [Example 529-B]	1.4	8.04	–
COc1cc(-c2cc(C(=O)N3CCC(C(=O)N[C@@H](C)c4cccc(F)c4)CC3)n[nH]2)c(Cl)cn1 [Example 103, (8)-1-(5-(5-chloro-2-methoxypyridin-4-yl)-1H-pyrazole-3-carbonyl)-N-(1-(3-fluorophenyl)ethyl)piperidine-4-carboxamide]	257	–	6.50
COc1cc(-c2cc(C(=O)N3CCC(C(=O)NCc4cccc(Cl)c4)CC3)n[nH]2)c(Cl)cn1 [Example 112, 1-[5-(5-chloro-2-methoxypyridin-4-yl)-1H-pyrazole-3-carbonyl]-N-[(3-chlorophenyl)methyl]piperidine-4-carboxamide]	30.3	–	6.95
COc1cc(-c2cc(C(=O)N3CCC(C(=O)NC4CCN(c5ccccc5)C4)CC3)n[nH]2)c(Cl)cn1 (centres unmarked) [Example 117, 1-[5-(5-chloro-2-methoxypyridin-4-yl)-1H-pyrazole-3-carbonyl]-N-(1-phenylpyrrolidin-3-yl)piperidine-4-carboxamide]	56.2	–	6.53
COc1cc(-c2cc(C(=O)N3CCC(C(=O)NCc4cn5ccccc5n4)CC3)n[nH]2)c(Cl)cn1 [Example 119, 1-(5-(5-chloro-2-methoxypyridin-4-yl)-1H-pyrazole-3-carbonyl)-N-(imidazo[1,2-a]pyridin-2-ylmethyl)piperidine-4-carboxamide]	337	–	< 5.30
COc1cc(-c2cc(C(=O)N3CCC(C(=O)NCc4ccc(Cl)cn4)CC3)n[nH]2)c(Cl)cn1 [Example 120, 1-(5-(5-chloro-2-methoxypyridin-4-yl)-1H-pyrazole-3-carbonyl)-N-((5-chloropyridin-2-yl)methyl)piperidine-4-carboxamide]	227	–	6.12
COc1cc(-c2cc(C(=O)N3CCC(C(=O)NCc4ccc5[nH]ccc5c4)CC3)n[nH]2)c(Cl)cn1 [Example 122, N-((1H-indol-5-yl)methyl)-1-(5-(5-chloro-2-methoxypyridin-4-yl)-1H-pyrazole-3-carbonyl)piperidine-4-carboxamide]	11	–	7.18
